Data on 1 compound can be found in publication PMC5218480 (PLoS ONE, 2017).

The assay concerns MV-4-11 cells. As to the kind of experiment: Gene expression microarray analysis (Affymetrix PrimeView) and GSEA. Format: cell-based, human. On the set-up: RFU PODN (11730768_x_at) / Fold change /veh PODN (11730768_x_at) / RFU LINC00158 (11744669_a_at) / Fold change /veh LINC00158 (11744669_a_at) / RFU DUSP10 (11751237_a_at) / Fold change /veh DUSP10 (11751237_a_at) / RFU ID3 (11757404_x_at) / Fold change /veh ID3 (11757404_x_at) / RFU PLEKHG5 (11737974_s_at) / Fold change /veh PLEKHG5 (11737974_s_at) / RFU LRRC4B (11730491_at) / Fold change /veh LRRC4B (11730491_at) / RFU GIMAP4 (11747438_a_at) / Fold change /veh GIMAP4 (11747438_a_at) / RFU KRT8 (11758183_x_at) / Fold change /veh KRT8 (11758183_x_at) / RFU CNN1 (11734310_a_at) / Fold change /veh CNN1 (11734310_a_at) / RFU VPS37D (11726825_at) / Fold change /veh VPS37D (11726825_at) / RFU C10orf10 (11716522_x_at) / Fold change /veh C10orf10 (11716522_x_at) / RFU KIR2DL2 /// KIR2DL4 /// KIR2DL5A /// KIR2DL5B /// KIR2DS1 /// KIR2DS2 /// KIR2DS3 /// KIR2DS4 /// KIR3DL3 /// KIR3DL3 /// KIR3DS1 (11738374_at) / Fold change /veh KIR2DL2 /// KIR2DL4 /// KIR2DL5A /// KIR2DL5B /// KIR2DS1 /// KIR2DS2 /// KIR2DS3 /// KIR2DS4 /// KIR3DL3 /// KIR3DL3 /// KIR3DS1 (11738374_at) / RFU C1QL1 (11718748_at) / Fold change /veh C1QL1 (11718748_at) / RFU TMPRSS4 (11747572_a_at) / Fold change /veh TMPRSS4 (11747572_a_at) / RFU HAMP (11756126_x_at) / Fold change /veh HAMP (11756126_x_at) / RFU RNFT2 (11725882_a_at) / Fold change /veh RNFT2 (11725882_a_at) / RFU NR4A2 (11747474_a_at) / Fold change /veh NR4A2 (11747474_a_at) / RFU ABCC12 (11746883_a_at) / Fold change /veh ABCC12 (11746883_a_at) / RFU TMEM136 (11760407_x_at) / Fold change /veh TMEM136 (11760407_x_at) / RFU CLDN22 /// WWC2 (11732394_at) / Fold change /veh CLDN22 /// WWC2 (11732394_at) / RFU HLA-DPB1 (11760878_x_at) / Fold change /veh HLA-DPB1 (11760878_x_at) / RFU SPINT1 (11716480_a_at) / Fold change /veh SPINT1 (11716480_a_at) / RFU GAP43 (11754022_s_at) / Fold change /veh GAP43 (11754022_s_at) / RFU A4GNT (11735810_at) / Fold change /veh A4GNT (11735810_at) / RFU PRB3 (11715151_x_at) / Fold change /veh PRB3 (11715151_x_at) / RFU TUBB4B (11761932_at) / Fold change /veh TUBB4B (11761932_at) / RFU CAPN14 (11732068_a_at) / Fold change /veh CAPN14 (11732068_a_at) / RFU TMCC2 (11721928_a_at) / Fold change /veh TMCC2 (11721928_a_at) / RFU IRGQ (11745062_a_at) / Fold change /veh IRGQ (11745062_a_at) / RFU FAM174B (11720279_a_at) / Fold change /veh FAM174B (11720279_a_at) / RFU TMPRSS4 (11748680_a_at) / Fold change /veh TMPRSS4 (11748680_a_at) / RFU FAM212B (11763350_a_at) / Fold change /veh FAM212B (11763350_a_at) / RFU PLEKHG5 (11743358_a_at) / Fold change /veh PLEKHG5 (11743358_a_at) / RFU ZSCAN30 (11745921_a_at) / Fold change /veh ZSCAN30 (11745921_a_at) / RFU CMKLR1 (11741424_a_at) / Fold change /veh CMKLR1 (11741424_a_at) / RFU LOC101060620 /// MAPK8IP1 (11723275_at) / Fold change /veh LOC101060620 /// MAPK8IP1 (11723275_at) / RFU SPTSSB (11747773_x_at) / Fold change /veh SPTSSB (11747773_x_at) / RFU PRSS12 (11739890_at) / Fold change /veh PRSS12 (11739890_at) / RFU BIN1 (11741810_x_at) / Fold change /veh BIN1 (11741810_x_at) / RFU WNT11 (11732464_a_at) / Fold change /veh WNT11 (11732464_a_at) / RFU C10orf10 (11716521_a_at) / Fold change /veh C10orf10 (11716521_a_at) / RFU C5orf56 (11738089_at) / Fold change /veh C5orf56 (11738089_at) / RFU CYB561 (11721691_x_at) / Fold change /veh CYB561 (11721691_x_at) / RFU ANKRD19P (11752326_a_at) / Fold change /veh ANKRD19P (11752326_a_at) / RFU OR2T12 /// OR2T33 /// OR2T8 (11738714_s_at) / Fold change /veh OR2T12 /// OR2T33 /// OR2T8 (11738714_s_at) / RFU VCAN (11748164_a_at) / Fold change /veh VCAN (11748164_a_at) / RFU JSRP1 (11732532_at) / Fold change /veh JSRP1 (11732532_at) / RFU KRTAP10-11 (11738290_x_at) / Fold change /veh KRTAP10-11 (11738290_x_at) / RFU MYO3A (11730013_a_at) / Fold change /veh MYO3A (11730013_a_at) / RFU EBF3 (11725865_a_at) / Fold change /veh EBF3 (11725865_a_at) / RFU CAMK2N1 (11719241_x_at) / Fold change /veh CAMK2N1 (11719241_x_at) / RFU C5orf56 (11738088_a_at) / Fold change /veh C5orf56 (11738088_a_at) / RFU OLFML3 (11715873_a_at) / Fold change /veh OLFML3 (11715873_a_at) / RFU LOC100653217 /// NTM (11731650_a_at) / Fold change /veh LOC100653217 /// NTM (11731650_a_at) / RFU MAPK11 (11762145_a_at) / Fold change /veh MAPK11 (11762145_a_at) / RFU FIZ1 (11724087_x_at) / Fold change /veh FIZ1 (11724087_x_at) / RFU OASL (11726364_x_at) / Fold change /veh OASL (11726364_x_at) / RFU SOX15 (11748057_x_at) / Fold change /veh SOX15 (11748057_x_at) / RFU CD79A (11719716_a_at) / Fold change /veh CD79A (11719716_a_at) / RFU HIST1H1D (11736915_at) / Fold change /veh HIST1H1D (11736915_at) / RFU CASKIN2 (11723855_a_at) / Fold change /veh CASKIN2 (11723855_a_at) / RFU LOC730098 (11760151_x_at) / Fold change /veh LOC730098 (11760151_x_at) / RFU OR4N2 (11742367_at) / Fold change /veh OR4N2 (11742367_at) / RFU PRRT2 (11749266_a_at) / Fold change /veh PRRT2 (11749266_a_at) / RFU SNX32 (11753110_a_at) / Fold change /veh SNX32 (11753110_a_at) / RFU CDHR5 (11726645_a_at) / Fold change /veh CDHR5 (11726645_a_at) / RFU RCAN1 (11760418_a_at) / Fold change /veh RCAN1 (11760418_a_at) / RFU FAM167A (11723789_a_at) / Fold change /veh FAM167A (11723789_a_at) / RFU FAM26E (11764081_at) / Fold change /veh FAM26E (11764081_at) / RFU ISYNA1 (11749810_s_at) / Fold change /veh ISYNA1 (11749810_s_at) / RFU ACY1 (11761880_at) / Fold change /veh ACY1 (11761880_at) / RFU 11764098_at / Fold change /veh 11764098_at / RFU SAMD14 (11745864_x_at) / Fold change /veh SAMD14 (11745864_x_at) / RFU NPB (11741838_a_at) / Fold change /veh NPB (11741838_a_at) / RFU TMPRSS6 (11731388_a_at) / Fold change /veh TMPRSS6 (11731388_a_at) / RFU KRTAP10-2 (11738614_at) / Fold change /veh KRTAP10-2 (11738614_at) / RFU ARHGAP8 /// PRR5-ARHGAP8 (11727945_x_at) / Fold change /veh ARHGAP8 /// PRR5-ARHGAP8 (11727945_x_at) / RFU KRTAP5-7 /// NADSYN1 (11734609_at) / Fold change /veh KRTAP5-7 /// NADSYN1 (11734609_at) / RFU RASL12 (11751679_a_at) / Fold change /veh RASL12 (11751679_a_at) / RFU CDKN2B (11736163_a_at) / Fold change /veh CDKN2B (11736163_a_at) / RFU PRF1 (11729649_at) / Fold change /veh PRF1 (11729649_at) / RFU, ZNF638 /// ZNF638-IT1 / Fold change vs veh, ZNF638 /// ZNF638-IT1 / RFU, PANK3 / Fold change vs veh, PANK3 / RFU, SH3YL1 / Fold change vs veh, SH3YL1 / RFU, ZEB2 / Fold change vs veh, ZEB2 / RFU, NRIP1 / Fold change vs veh, NRIP1 / RFU, PTTG1IP / Fold change vs veh, PTTG1IP / RFU, CAPN2 / Fold change vs veh, CAPN2 / RFU, MED14 / Fold change vs veh, MED14 / RFU, SNORA58 / Fold change vs veh, SNORA58 / RFU, C1orf63 / Fold change vs veh, C1orf63 / RFU, LRRFIP1 / Fold change vs veh, LRRFIP1 / RFU, NDUFAF7 / Fold change vs veh, NDUFAF7 / RFU, SLC12A2 / Fold change vs veh, SLC12A2 / RFU, IBTK / Fold change vs veh, IBTK / RFU, ESF1 / Fold change vs veh, ESF1 / Fold change vs veh, TMEM50B / RFU, TAOK1 / Fold change vs veh, TAOK1 / RFU, ACBD3 / Fold change vs veh, ACBD3 / RFU, TMA16 / Fold change vs veh, TMA16 / RFU, RWDD3 / Fold change vs veh, RWDD3 / RFU, BCAT1 / Fold change vs veh, BCAT1 / RFU, EDEM3 / Fold change vs veh, EDEM3 / RFU, TMEM33 / Fold change vs veh, TMEM33 / RFU, WDR75 / Fold change vs veh, WDR75 / RFU, AHCTF1 / Fold change vs veh, AHCTF1 / RFU, TFRC / Fold change vs veh, TFRC / RFU, ZDHHC17 / Fold change vs veh, ZDHHC17 / RFU, NOM1 / Fold change vs veh, NOM1 / RFU, ARL8B / Fold change vs veh, ARL8B / RFU, ZBTB11 / Fold change vs veh, ZBTB11 / RFU, TAMM41 / Fold change vs veh, TAMM41 / RFU, KIAA1704 /// LOC100996395 / Fold change vs veh, KIAA1704 /// LOC100996395 / RFU, ING1 / Fold change vs veh, ING1 / RFU, TRMT61B / Fold change vs veh, TRMT61B / RFU, FUBP3 / Fold change vs veh, FUBP3 / RFU, TP53 / Fold change vs veh, TP53 / RFU, TNKS2 / Fold change vs veh, TNKS2 / RFU, ZFP14 / Fold change vs veh, ZFP14 / RFU, ACTR2 / Fold change vs veh, ACTR2 / RFU, PPP3R1 / Fold change vs veh, PPP3R1 / RFU, PIK3R1 / Fold change vs veh, PIK3R1 / RFU, HNRNPA1 / Fold change vs veh, HNRNPA1 / RFU, RNF170 / Fold change vs veh, RNF170 / RFU, ZNF28 / Fold change vs veh, ZNF28 / RFU, RNGTT / Fold change vs veh, RNGTT / RFU, OGT / Fold change vs veh, OGT / RFU, BRD1 / Fold change vs veh, BRD1 / RFU, MARS / Fold change vs veh, MARS / RFU, ZNF655 / Fold change vs veh, ZNF655 / RFU, FAHD1 / Fold change vs veh, FAHD1 / RFU, BDP1 / Fold change vs veh, BDP1 / RFU, LRRCC1 / Fold change vs veh, LRRCC1 / RFU, ARID1A / Fold change vs veh, ARID1A / RFU, ZNF146 / Fold change vs veh, ZNF146 / RFU, ZNF330 / Fold change vs veh, ZNF330 / RFU, GPN3 / Fold change vs veh, GPN3 / RFU, C9orf123 / Fold change vs veh, C9orf123 / RFU, N4BP2L2 / Fold change vs veh, N4BP2L2 / RFU, ARFIP1 / Fold change vs veh, ARFIP1 / RFU, FAM179B / Fold change vs veh, FAM179B / RFU, BCL10 / Fold change vs veh, BCL10 / RFU, UHRF1BP1L / Fold change vs veh, UHRF1BP1L / RFU, BET1 / Fold change vs veh, BET1 / RFU, CNOT2 / Fold change vs veh, CNOT2 / RFU, ZNF268 / Fold change vs veh, ZNF268 / Fold change vs veh, ZNF507 / RFU, DGCR2 / Fold change vs veh, DGCR2 / RFU, WDSUB1 / Fold change vs veh, WDSUB1 / Fold change vs veh, HSP90B1 /// MIR3652 / RFU, ADSS / Fold change vs veh, ADSS / RFU, GK / Fold change vs veh, GK / RFU, ZNF148 / Fold change vs veh, ZNF148 / RFU, TAF9 / Fold change vs veh, TAF9 / RFU, SLC1A5 / Fold change vs veh, SLC1A5 / RFU, SLMO2 / Fold change vs veh, SLMO2 / RFU, ABCC4 / Fold change vs veh, ABCC4 / RFU, LOC101060439 /// RAP1B / Fold change vs veh, LOC101060439 /// RAP1B / RFU, RFX7 / Fold change vs veh, RFX7 / RFU, GTPBP10 / Fold change vs veh, GTPBP10 / RFU, CNEP1R1 / Fold change vs veh, CNEP1R1 / RFU, BIVM-ERCC5 /// ERCC5 / Fold change vs veh, BIVM-ERCC5 /// ERCC5 / RFU, ILF3 / Fold change vs veh, ILF3 / RFU 11762660_at / Fold change /veh 11762660_at / RFU VCAN (11757783_s_at) / Fold change /veh VCAN (11757783_s_at) / RFU DDX43 (11728927_at) / Fold change /veh DDX43 (11728927_at) / RFU KRT8 (11758188_x_at) / Fold change /veh KRT8 (11758188_x_at) / RFU NKD1 (11759106_at) / Fold change /veh NKD1 (11759106_at) / RFU SRD5A1 (11742802_a_at) / Fold change /veh SRD5A1 (11742802_a_at) / RFU TPSAB1 /// TPSB2 (11721975_s_at) / Fold change /veh TPSAB1 /// TPSB2 (11721975_s_at) / RFU GSTM3 (11746129_a_at) / Fold change /veh GSTM3 (11746129_a_at) / RFU IL23R (11737362_x_at) / Fold change /veh IL23R (11737362_x_at) / RFU TMEM51 (11727254_a_at) / Fold change /veh TMEM51 (11727254_a_at) / RFU PIWIL2 (11732686_x_at) / Fold change /veh PIWIL2 (11732686_x_at) / RFU ORM1 (11744905_x_at) / Fold change /veh ORM1 (11744905_x_at) / RFU CCDC152 (11743942_at) / Fold change /veh CCDC152 (11743942_at) / RFU ECM1 (11717891_a_at) / Fold change /veh ECM1 (11717891_a_at) / RFU IL23R (11748794_a_at) / Fold change /veh IL23R (11748794_a_at) / RFU TNFAIP8L3 (11732012_x_at) / Fold change /veh TNFAIP8L3 (11732012_x_at) / RFU MBOAT4 (11741988_at) / Fold change /veh MBOAT4 (11741988_at) / RFU 11764193_at / Fold change /veh 11764193_at / RFU TMEM53 (11763286_at) / Fold change /veh TMEM53 (11763286_at) / RFU MAGEB2 (11727129_at) / Fold change /veh MAGEB2 (11727129_at) / RFU TMEM200A (11744735_a_at) / Fold change /veh TMEM200A (11744735_a_at) / RFU CCDC152 (11751479_a_at) / Fold change /veh CCDC152 (11751479_a_at) / RFU FAM211A (11726209_a_at) / Fold change /veh FAM211A (11726209_a_at) / RFU RGS16 (11746705_a_at) / Fold change /veh RGS16 (11746705_a_at) / RFU VCAN (11755009_s_at) / Fold change /veh VCAN (11755009_s_at) / RFU RHOB (11743442_s_at) / Fold change /veh RHOB (11743442_s_at) / RFU RGS16 (11720943_a_at) / Fold change /veh RGS16 (11720943_a_at) / RFU RGS16 (11720944_at) / Fold change /veh RGS16 (11720944_at) / RFU, VPS4B / Fold change vs veh, VPS4B / RFU, CREB1 / Fold change vs veh, CREB1 / RFU, DNAJC13 / Fold change vs veh, DNAJC13 / RFU, GNAQ / Fold change vs veh, GNAQ / RFU, CDK5R1 / Fold change vs veh, CDK5R1 / RFU, ZRANB3 / Fold change vs veh, ZRANB3 / RFU, CUL4A / Fold change vs veh, CUL4A / RFU, CCNY / Fold change vs veh, CCNY / RFU, UFL1 / Fold change vs veh, UFL1 / RFU, COG3 / Fold change vs veh, COG3 / RFU, DIAPH2 / Fold change vs veh, DIAPH2 / RFU, SKA2 / Fold change vs veh, SKA2 / RFU, AFF3 / Fold change vs veh, AFF3 / RFU, LMF1 / Fold change vs veh, LMF1 / RFU, IPO11 / Fold change vs veh, IPO11 / RFU, DFFB / Fold change vs veh, DFFB / RFU, FOXP1 / Fold change vs veh, FOXP1 / RFU, CARD8 / Fold change vs veh, CARD8 / RFU, STRN3 / Fold change vs veh, STRN3 / RFU, ADK / Fold change vs veh, ADK / RFU, RASSF2 / Fold change vs veh, RASSF2 / RFU, WIPF1 / Fold change vs veh, WIPF1 / RFU, LARP1B / Fold change vs veh, LARP1B / RFU, RASA1 / Fold change vs veh, RASA1 / RFU, RB1 / Fold change vs veh, RB1 / RFU, PPFIA1 / Fold change vs veh, PPFIA1 / RFU, MAT2A / Fold change vs veh, MAT2A / RFU, CCT5 / Fold change vs veh, CCT5 / RFU, WDR92 / Fold change vs veh, WDR92 / RFU, CUX1 / Fold change vs veh, CUX1 / RFU, TTC7A / Fold change vs veh, TTC7A / RFU, TMEM135 / Fold change vs veh, TMEM135 / RFU, DEPTOR / Fold change vs veh, DEPTOR / RFU, CPM / Fold change vs veh, CPM / RFU, DNAJB6 / Fold change vs veh, DNAJB6 / RFU, CACNA2D3 / Fold change vs veh, CACNA2D3 / RFU, DTX4 / Fold change vs veh, DTX4 / RFU, TFCP2 / Fold change vs veh, TFCP2 / RFU, GMCL1 /// GMCL1P1 / Fold change vs veh, GMCL1 /// GMCL1P1 / RFU, AEBP2 / Fold change vs veh, AEBP2 / RFU, SNHG1 /// SNORD22 /// SNORD25 /// SNORD26 /// SNORD27 /// SNORD28 /// SNORD29 /// SNORD31 / Fold change vs veh, SNHG1 /// SNORD22 /// SNORD25 /// SNORD26 /// SNORD27 /// SNORD28 /// SNORD29 /// SNORD31 / Fold change (Aza/veh), C12orf56 (ProbeSet 11735607_a_at) / Fold change (ACY-1035/veh), C12orf56 (ProbeSet 11735607_a_at) / Fold change (Aza/veh), FGFR1OP (ProbeSet 11751329_s_at) / Fold change (ACY-1035/veh), FGFR1OP (ProbeSet 11751329_s_at) / Fold change (Aza/veh), VPS36 (ProbeSet 11739960_a_at) / Fold change (ACY-1035/veh), VPS36 (ProbeSet 11739960_a_at) / RFU SYPL1 (11715823_x_at) / Fold change /veh SYPL1 (11715823_x_at) / RFU IGFBP7 (11715501_s_at) / Fold change /veh IGFBP7 (11715501_s_at) / RFU REEP3 (11722064_at) / Fold change /veh REEP3 (11722064_at) / RFU IGLL1 (11728026_x_at) / Fold change /veh IGLL1 (11728026_x_at): dose or concentration left out as unconfirmed. To be noted: MV-4-11 cells, 48 hours.

Consider `Nc1ccc(-c2cccs2)cc1NC(=O)c1ccc2c(c1)cc(C1CC1)n2CCN1CCOCC1` [ACY-1035], for which the “Fold change /veh GIMAP4 (11747438_a_at)” value is 1.02.
